Assay results published in patent US8883745B2, “C—glycolipids with enhanced Th-1 profile” (New York University, priority 2006, dated 2014).

Legend:
IFN-γ = IFN-γ levels in sera upon i.v. glycolipid administration to BALB/c mice (ELISA); assay type: in vivo; set-up: IFN-γ levels, test 1 / IFN-γ levels, test 2 / IFN-γ levels, average / IFN-γ levels, Total: unit not given here; conditions: BALB/c
Experimental: (§1) Five- to six-week-old female C57BL/6 mice and BALB/c mice were purchased from Taconic. Each glycolipid was stored at 1 mg/ml in 100% DMSO. Mice were injected intravenously with 1 μg of each glyocolipid diluted in 200 μL sterile phosphate buffered saline (PBS). At indicated time points, sera were collected from each animal, and concentrations of IFN-γ, IL-4, and IL-12 in the sera were evaluated by enzyme-linked immunosorbent assay (ELISA). Serum concentrations of IFN-γ, IL-4, and IL-12 were evaluated using an ELISA kit (eBioscience, San Diego, Calif.). Briefly, 96 well flat-bottom ELISA plates (NUNC) were coated with capture antibody according to the manufacture's recommendation and incubated overnight at 4° C. The plates were washed with PBS+0.05% Tween 20 (PBS-T), then incubated with manufacturer provided blocking solution for 1 hr at room temperature to block non-specific binding sites. After washing with PBS-T, sera diluted 1:10 was added to the wells and incubated for 2 hrs at room temperature. Plates were then incubated at room temperature for 1 hr with biotintylated detection antibody, washed, incubated with avidin conjugated to horse radish peroxidase (HRP) for 30 min at room temperature, washed, and finally incubated with tetramethylbenzidine substrate solution in the dark for 10 minutes at room temperature. The antibodies, avidin-HRP, and substrate solution were all diluted according to the manufacture's recommendation. Reactions were stopped with 2.0N sulfuric acid and the cytokine concentration in each well was determined by comparing the absorbance at 450 nm in each well to known standards. The levels of Th1- and Th2-type cytokines were determined in two different genetic backgrounds, i.e., in C57BL/6 mice and BALB/c mice. The following compounds were administered: A=compound (A-1 trans-conformer), B=compound (A-2), C=compound (A-3), D=compound (A-4), E=compound (A-5), Z=control (PBS alone), CRONY=α-C-GalCer, KRN=α-GalCer, GCK109 (A-1 trans-conformer), GCK151 (A-1 cis-conformer), GCK152 (A-7). The levels of cytokines were measured at 0, 2, 6, 12, 24, 48, and 72 hours after the compound administration. The levels of Th1-type cytokines IFN-γ and IL-12 are summarized in FIGS. 2A-C and 3A-C, respectively. Table 7 provides IFN-γ/IL-4 and IL-12/IL-4 ratios for various compounds, which can be used as indicators of their ability to selectively stimulate Th1-type immune responses.

IL-12 = IL-12 levels in sera upon i.v. glycolipid administration to BALB/c mice (ELISA); assay type: in vivo; set-up: IL-12 levels, test 1 / IL-12 levels, test 2 / IL-12 levels, average / IL-12 levels, Total: unit not given here
Experimental: as §1

[1] = Solubility in an aqueous solution; assay type: physicochemical
[2] = tested on: rodent malaria parasites, P. yoeli and P. berghei; conditions: administration to mice; cited from earlier work
[3] = rodents and monkeys, independently of dosage; cited from earlier work
solid tumors = conditions: Phase I study; cited from earlier work
[4] = ratio calculated from Tables 1-6

SMILES: CCCCCCCCCCCCCCCCCCCCCCCCCC(=O)N[C@@H](CO[C@H]1O[C@H](CO)[C@H](O)[C@H](O)[C@H]1O)[C@H](O)[C@H](O)CCCCCCCCCCCCCC [KRN, (2S,3S,4R)-1-O-(α-D-galactopyranosyl)-2-(N-hexacosanoylamino)-1,3,4-,-octadecanetriol, reference compound]
- IFN-γ/IL-4 (BALB/c) (IFN-γ; [4]): 10
- IFN-γ levels, average (IFN-γ; serum, hour 0): 27
- IFN-γ levels, test 1 (IFN-γ; serum, hour 0): 27
- IFN-γ levels, test 2 (IFN-γ; serum, hour 0): 27
- IFN-γ levels, average (IFN-γ; serum, hour 2): 945
- IFN-γ levels, test 1 (IFN-γ; serum, hour 2): 841
- IFN-γ levels, test 2 (IFN-γ; serum, hour 2): 1049
- IFN-γ levels, average (IFN-γ; serum, hour 6): 4752.5
- IFN-γ levels, test 1 (IFN-γ; serum, hour 6): 4170
- IFN-γ levels, test 2 (IFN-γ; serum, hour 6): 5335
- IFN-γ levels, average (IFN-γ; serum, hour 12): 8393.5
- IFN-γ levels, test 1 (IFN-γ; serum, hour 12): 7996
- IFN-γ levels, test 2 (IFN-γ; serum, hour 12): 8791
- IFN-γ levels, average (IFN-γ; serum, hour 24): 6740
- IFN-γ levels, test 1 (IFN-γ; serum, hour 24): 6497
- IFN-γ levels, test 2 (IFN-γ; serum, hour 24): 6983
- IFN-γ levels, average (IFN-γ; serum, hour 48): 112.5
- IFN-γ levels, test 1 (IFN-γ; serum, hour 48): 86
- IFN-γ levels, test 2 (IFN-γ; serum, hour 48): 139
- IFN-γ levels, average (IFN-γ; serum, hour 72): 36
- IFN-γ levels, test 1 (IFN-γ; serum, hour 72): 36
- IFN-γ levels, test 2 (IFN-γ; serum, hour 72): 36
- IFN-γ levels, Total (IFN-γ; serum, total over hours 0-72): 21008
- IL-12/IL-4 (BALB/c) (IL-12; [4]): 2
- IL-12 levels, average (IL-12; serum, hour 0): 5
- IL-12 levels, test 1 (IL-12; serum, hour 0): 5
- IL-12 levels, test 2 (IL-12; serum, hour 0): 5
- IL-12 levels, average (IL-12; serum, hour 2): 124
- IL-12 levels, test 1 (IL-12; serum, hour 2): 69
- IL-12 levels, test 2 (IL-12; serum, hour 2): 179
- IL-12 levels, average (IL-12; serum, hour 6): 3067.5
- IL-12 levels, test 1 (IL-12; serum, hour 6): 2567
- IL-12 levels, test 2 (IL-12; serum, hour 6): 3568
- IL-12 levels, average (IL-12; serum, hour 12): 437.5
- IL-12 levels, test 1 (IL-12; serum, hour 12): 282
- IL-12 levels, test 2 (IL-12; serum, hour 12): 593
- IL-12 levels, average (IL-12; serum, hour 24): 265.5
- IL-12 levels, test 1 (IL-12; serum, hour 24): 119
- IL-12 levels, test 2 (IL-12; serum, hour 24): 412
- IL-12 levels, average (IL-12; serum, hour 48): 68
- IL-12 levels, test 1 (IL-12; serum, hour 48): 57
- IL-12 levels, test 2 (IL-12; serum, hour 48): 79
- IL-12 levels, average (IL-12; serum, hour 72): 61
- IL-12 levels, test 1 (IL-12; serum, hour 72): 57
- IL-12 levels, test 2 (IL-12; serum, hour 72): 65
- IL-12 levels, Total (IL-12; serum, total over hours 0-72): 4030
- solubility in an aqueous solution relative to the tested compounds of the invention [1]: more soluble
- anti-malaria activity (inhibition of intra-hepatocytic stages) [2]: strong anti-malaria activity
- toxicity [3]: does not induce toxicity
- effect in patients with solid tumors (solid tumors): little effect
